# How the values were obtained:
# [1] = test system: H460 parental and derived paclitaxel resistant cells; test: Viability of H460 parental and paclitaxel resistant cells; assay type: cell-based, human; conditions: for Viability of H460 resistant vs parental line: 72 hours
# Procedure: Percentage viability relative to vehicle treatment was calculated. Representative of three independent assays conducted in triplicate.
# FIG. […] Percentage viability relative to vehicle treatment. Representative of three independent assays conducted in triplicate.
# Representative of three independent assays conducted in triplicate.
# Cell lines were obtained from ATCC and maintained according to manufacturer's instructions. The human lung cancer cell line NCI-H460, H69AR (ATCC) were cultured in RPMI medium (Corning) containing 10% FBS. The human breast cancer cell line MDA-MB-231 was cultured in DMEM medium (Corning) containing 10% FBS. All cell lines were maintained at 5% CO2 and 37° C. Paclitaxel resistant H460 cells were derived by treating cells once a week over 6 weeks, initially with 1 nM paclitaxel and then increasing dose incrementally up to 100 nM. Once resistance was confirmed, paclitaxel was withdrawn from the cells. Resistance to paclitaxel was maintained without presence of paclitaxel measured up to 2 months. A parental line was maintained for a similar number of passages as the resistant line. All experiments were performed using cells that had not been treated with paclitaxel in at least three passages.
# Cells of interest were plated at 2000 cells per well in 96-well black tissue culture plate and allowed to adhere to the plate overnight. Viability assays were performed using 10% serum medium unless otherwise stated. Drugs were diluted in supplemented tissue culture medium and added at increasing concentrations, with DMSO as a vehicle control. […] Luminescence was measured using Tropix TR717 Microplate luminometer. Percentage of viable cells is relative to vehicle (100%). As a complementary viability assay, eBioscience Fixable Viability Dye eFluor 660(65-0864) was used to stain dead cells and analyzed using flow cytometry.
# [2] = molecular target: Bcl-2 (Homo sapiens, UniProt P10415); test: Bcl-2 conformational change by Bcl-2 BH3 domain antibody and flow cytometry; conditions: 10 μM, 10% serum
# Procedure: MDA-MB231/Bcl-2 cells and H460 cells were exposed to MTX at 10 μM concentration for 24 h in a medium containing 10% serum. Change in Bcl-2 conformation was determined using Bcl-2 BH3 only anti-body followed by flow cytometric analysis.
# Change in conformation of Bcl-2 was determined by using Bcl-2 BH3 antibody followed by flow cytometric analysis.
# Change in conformation of Bcl-2 was determined by using Bcl-2 BH3 only antibody followed by flow cytometric analysis.
# When there is a conformational change in Bcl-2 protein, the BH3 domain is exposed and is detected by the Bcl-2 BH3 domain antibody.
# [3] = test system: LMD231-Luc cells; test: Breast cancer lung metastasis model (tail vein, bioluminescence); assay type: in vivo, nude mice; conditions: for Growth of lung metastasis (bioluminescence): intraperitoneal, end of 7 weeks
# Procedure: FIG. 19A About 200,000 LMD-231 cells stably expressing luciferase was injected into the tail vein of 6 week old nude mice. Lung metastasis was formed in 2 weeks. Mice were treated with 100 mg/kg BFC1108 4 times a week by intraperitoneal route. Bioluminescent imaging was performed once a week and quantified.
# About 200,000 LMD-231 cells stably expressing luciferase was injected into the tail vein of 6 week old nude mice. Lung metastasis was detectable in 2 weeks after injection of tumor cells. Mice were treated with 50 mg/kg of BFC1103 6 times a week by intraperitoneal injections. Bioluminescent imaging was performed once a week and quantified. * P<0.05.
# For the lung metastatic study, 5 week old Nude mice were procured from Jackson Labs. About 200,000 LMD231-Luc2 cells in PBS were injected into the tail vein. Lung metastasis could be detected in 2 weeks' time. Treatments with BFC1108 at 100 mg/kg, 4 times a week, were started a day after the cells were injected. Body weight was measured twice a week. Bioluminescence was measured once a week while the mice are under anesthesia. At the end of the study mice were euthanized and lung tissues were dissected and fixed for immunohistochemical analysis.
# For experimental lung metastases model, LMD-231 cells derived from MDA-MB-231 that repeatedly colonized lungs were used23. Lenti viral particles with luciferase expression vector (GenTarget, San Diego, Calif.) was used to transduce LMD-231 cells to obtain high luciferase expressing clone after clonal expansion. The stable expression of luciferase was monitored for 7 weeks in vitro before using in animal experiments.
# All animal experiments were performed as per approved protocols from the IACUC at Oregon State University. 5 week old nude mice were procured from Jackson Labs (Bar Harbor, Me.). Treatments were started a day after the LMD-Luc cells (200,000 cells suspended in DPBS) were injected into the lateral tail vein. Body weight was measured twice a week. Bioluminescence was measured twice a week using IVIS Lumina II (PerkinElmer, Waltham, Mass.) as per manufacturer instructions, while the mice were under anesthesia.
# [4] = test system: H460 cells; test: JC-1 staining of mitochondrial membrane potential; assay type: cell-based, human; conditions: 16 h, 10% FBS, 10 μM for MTX and BFC1103
# Procedure: JC-1 was used to stain live cells undergoing treatment with MTX at 10 μM for 16 h and images taken with FITC and Rhodamine filters were overlayed. Cells stained orange have intact mitochondrial outer membrane and the ones turning green have compromised outer membrane indicating loss of membrane potential.
# (§1) FIG. 17D JC-1 stain was used to stain live H460 cells that were treated with M BFC1108 for 16 h in 10% FBS containing medium and images taken with FITC and rhodamine filters were overlaid. Cells stained orange have intact mitochondrial outer membrane and the ones turning green have compromised outer membrane indicating loss of membrane potential.
# as §1, with “JC-1” for “FIG. 17D JC-1”, “cells” for “cells that were”, “10 μM BFC1103” for “M BFC1108”
# [5] = test system: LNCaP, HepG2, H460, A375, U251, ZR-75-1 cells; test: Viability of a range of cancer cell types; assay type: cell-based, human
# Description: Cell titer glo assay (Promega, CA) was used for assessing viability as per manufacturer instructions. DAPI stain was used to assess apoptosis.
# [6] = test system: MDA-MB-231 cells with or without the Bcl-2 expression vector; test: Apoptosis in MDA-MB-231 cells (DAPI, annexin V staining); assay type: cell-based, human; conditions: 10% FBS
# [7] = test system: MDA-MB-231/Bcl-2 cells; test: Orthotopic breast cancer xenograft in mammary fat pad; assay type: in vivo, NOD SCID mice; conditions: 100 mg/kg twice a week; for Immunohistochemistry of tumor sections (TUNEL, Bcl-2 BH3, activated Bax, cleaved caspase-3): end of the study; for Tumor growth: intraperitoneal
# Procedure: […] were implanted in the mammary fat pad of NOD SCID mice (N=10). Once palpable tumors were formed MTX was treated at 100 mg/kg twice a week by intraperitoneal injections. Tumor measurements were made with digital calipers twice a week.
# 106 MDA-MB-231/Bcl-2 cells were implanted in the mammary fat pad of NOD. SCID mice (n=8 per group). Once palpable tumors formed, mice were treated with 100 mg/kg BFC1108 twice a week by i.p. route. Tumor measurements were made with digital calipers twice a week.
# All animal experiments were performed as per approved protocols from the IACUC at Oregon State University. 5 week old NOD.SCID mice were procured from Jackson Labs. Treatments were started once palpable tumors were detected. MTX was treated twice a week at 100 mg/kg dose. Body weight was measured twice a week. Tumor burden was measured twice a week using digital calipers.
# All animal experiments were performed as per approved protocols from the IACUC at Oregon State University. For the mammary fat pad xenograft study, 5 week old NOD.SCID mice were procured form Jackson labs. About 10^6 cells were injected into both the lower flanks of mammary fat pad in PBS. Palpable tumors were detected in 4 weeks after which treatment with BFC1108 at 100 mg/kg twice a week continued till end of the study. Tumor mass was measured using digital calipers twice a week along with body weight. At the end of the study mice were euthanized and tumors were collected for immunohistochemical analysis.
# Chain of Bcl-2 (P10415 whole entry, the tested form may be a part): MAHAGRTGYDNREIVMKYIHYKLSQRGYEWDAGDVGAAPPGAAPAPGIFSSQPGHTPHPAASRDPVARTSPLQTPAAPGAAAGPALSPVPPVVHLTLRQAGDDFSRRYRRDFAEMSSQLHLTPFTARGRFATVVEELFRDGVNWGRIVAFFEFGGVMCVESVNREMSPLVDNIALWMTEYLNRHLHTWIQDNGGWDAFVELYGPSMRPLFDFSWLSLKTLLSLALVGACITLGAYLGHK
Change in Bcl-2 conformation (BH3 domain exposure) in H460 cells ([2]; 24 h),SMILES,Viability of H460 resistant vs parental line [1],Change in Bcl-2 conformation (BH3 domain exposure) in MDA-MB-231/Bcl-2 cells ([2]; 48 h),"H&E analysis of lung tissue ([3]; 50 mg/kg, 6 days per week)","Ki67 staining of lung tissue ([3]; 50 mg/kg, 6 days per week)","Growth of lung metastasis (bioluminescence) ([3]; 50 mg/kg, 6 days per week)",Mitochondrial membrane potential (JC-1 dye) [4],"Viability of various cancer cell lines ([5]; 24 h, 10% FBS)","Apoptosis by annexin V staining ([6]; 10 μM, 48 h)","Cell viability, combination with paclitaxel ([1]; paclitaxel 1 nM and BFC1108 20 μM, 24 hours)","Immunohistochemistry of tumor sections (TUNEL, Bcl-2 BH3, activated Bax, cleaved caspase-3) [7]",Tumor growth [7],"Ki-67 staining of lung tissue ([3]; 100 mg/kg, 4 times a week)","Growth of lung metastasis (bioluminescence) ([3]; 100 mg/kg, 4 times a week)","Viability of a range of cancer cell types ([5]; 48 h, 10% serum)",Apoptosis by nuclear condensation and fragmentation (DAPI) ([6]; 10 μM),Apoptosis by annexin V staining ([6]; indicated concentrations),Change in Bcl-2 conformation (BH3 domain exposure) in MDA-MB-231/Bcl-2 cells ([2]; 24 h)
–,"CCCCc1ccc(NC(=O)CN(Cc2ccccc2)S(C)(=O)=O)cc1 [BFC1103, N-2-benzyl-N-1-(4-butylphenyl)-N-2-(methylsulfo-nyl) glycinamide]",reduced viability of resistant line preferentially,changed conformation of Bcl-2 of was detected in MDA-MB-231/Bcl-2 cells,potent suppression of tumor growth,"lung tissues from vehicle treated mice had a significantly higher number of proliferating cells, as measured by Ki67 staining, than the BFC1103 treated mice",significantly suppressed the growth of lung metastasis,decrease in their mitochondrial outer membrane potential,"reduced the viability of a host of cancer cell types including breast cancer ZR-75-1, non-small cell lung cancer H460, melanoma A375, liver cancer HepG2, and prostate cancer LNCaP cells",–,–,–,–,–,–,–,–,–,–
–,"CCOc1ccccc1NC(=O)c1cc(Cl)ccc1NC(=O)c1ccc(OC)cc1 [BFC1108, 5-chloro-N-(2-ethoxyphenyl)-2-[(4-methoxybenzoyl)amino]-benzamide]",reduced viability of resistant line preferentially,changed conformation of Bcl-2 was detected,–,–,–,decreased mitochondrial membrane potential,–,increased apoptosis in MDA-MB-231/Bcl-2 cells was observed,synergistic reduction in cell viability,functional conversion of Bcl-2 leading to activation of intrinsic mitochondrial death pathway was validated in vivo,significantly reduced the growth of a xenograft tumor,only vehicle treated animals showed Ki-67 positivity,suppressed the growth of lung metastasis,"reduce viability in a variety of cancer cell types including LNCaP, HepG2, H460, A375 and U251",–,–,–
also observed in H460 cells,"CN(Cc1cnc2nc(N)nc(N)c2n1)c1ccc(C(=O)N[C@@H](CCC(=O)O)C(=O)O)cc1 [MTX, (2S)-2-[[4-[(2,4 diaminopteridin-6-yl)methylmethylamino]benzoyl]amino] pentanedioc acid]",–,–,–,–,–,decrease in their mitochondrial membrane potential,–,–,–,caused a change in conformation of Bcl-2 and induced apoptosis in Bcl-2 over-expressing tumors,significant inhibition of tumor growth,–,–,–,higher apoptosis rate in the presence of the Bcl-2 protein,increased apoptosis in the presence of the Bcl-2 protein,considerable shift in the staining of MTX treated cells indicating change in the Bcl-2 conformation

# Source: patent US11419843B2, “Small molecule BCL-2 functional converters as cancer therapeutics” (Oregon State University, priority 2016, dated 2022)
